In brackets after ≈: the same amount, converted by molar mass. Like-named read-outs stand apart in the source and are kept apart here.
Tested on: M. tuberculosis H37Rv
Experiment: Mycobacterium tuberculosis H37Rv Inhibition Assay (Whole Cell Assay), MIC
Assay type: cell-based
[1] = 144 h, M. tuberculosis H37Rv, Middlebrook 7H9 + ADC, 37° C. six days, resazurin readout, read-out: MIC_H37Rv

| SMILES | MIC [1] [µM] | MIC (M. tuberculosis H37Rv whole cell assay, value from repeated testing of the compound, read-out: MIC) [µM] |
| --- | --- | --- |
| Cc1cc(S(=O)(=O)NCCO)ccc1-c1nnn(CC2CCCCO2)n1 (single isomer, unassigned) [Example 74 Isomer 1, N-(2-hydroxyethyl)-3-methyl-4-(2-((tetrahydro-2H-pyran-2-yl)methyl)-2H-tetrazol-5-yl)benzenesulfonamide] | 5 to 10 |  |
| O=S(=O)(NCCO)c1ccc(-c2nnn(Cc3ccc(F)cn3)n2)cc1F [Example 75, 2-fluoro-4-(2-((5-fluoropyridin-2-yl)methyl)-2H-tetrazol-5-yl)-N-(2-hydroxyethyl) benzenesulfonamide] | < 0.1 | 0.16 (≈ 0.0634 µg/mL) |
| COc1ccc(Cn2nnc(-c3ccc(S(=O)(=O)NC[C@@H](C)O)cc3)n2)nc1 [Example 26] | 10 to 25 |  |
| NC(=O)CNS(=O)(=O)c1ccc(-c2cn(CC3CCC(F)(F)CC3)nn2)cc1 [Example 69] | 1 to 5 |  |
| COc1ccc(Cn2cc(-c3ccc(S(=O)(=O)NCCO)cc3)nn2)cc1 [Example 63] | < 0.1 |  |
| C[C@@H](O)CNS(=O)(=O)c1ccc(-c2cn(Cc3ccc(F)cc3)nn2)cc1 [Example 70, (R)-4-(1-(4-fluorobenzyl)-1H-1,2,3-triazol-4-yl)-N-(2-hydroxypropyl) benzenesulfonamide] | < 0.1 |  |

Source: patent US11072591B2, “Tetrazole compounds and their use in the treatment of tuberculosis” (GLAXOSMITHKLINE INTELLECTUAL PROPERTY DEVELOPMENT LIMITED, priority 2017, dated 2021)
